Data from article PMC9179341, “Design of New Potent and Selective Thiophene-Based KV1.3 Inhibitors and Their Potential for Anticancer Activity” (Cancers, 2022).
Entries after “also recorded” stand apart in the source; their conditions may differ.

Legend:
Assay type in all cases: cell-based
KV1.5 = KV1.5 (Homo sapiens, UniProt P22460); experiment: Selectivity, HiClamp Xenopus laevis heterologous expression system, KV1.5; conditions: for IC50: HiClamp, oocytes, NA = no significant inhibition, no IC50 determined; for Effect on KV1.5 channel: at a concentration of the compound's IC50 value for KV1.3
Method: (§1) Ion channels (Kv1.x, Kv2.1, Kv4.2, Kv10.1) were expressed in Xenopus laevis oocytes by linearization of the plasmids and subsequent in vitro transcription using a commercial T7 or SP6 mMESSAGE mMACHINE transcription kit (Ambion, Carlsbad, California, USA). Defolliculated Xenopus oocytes were then injected with 20–50 nL of the cRNA at a concentration of 1 ng/nL using a micro-injector (Drummond Scientific1, Broomall, PA, USA). The oocytes were incubated in a solution containing (in mM): NaCl, 96; KCl, 2; CaCl2, 1.8; MgCl2, 2 and HEPES, 5 (pH 7.5), supplemented with 50 mg/L gentamycin sulfate and 90 mg/L theophylline. After ex vivo translation, the ion channels were correctly inserted in the cell membrane of the oocytes.
(§2) Two-electrode voltage-clamp recordings were performed at room temperature (18–22 °C) using a Geneclamp 500 amplifier (Molecular Devices, San Jose, CA, USA) and pClamp data acquisition (Axon Instruments, Union City, CA, USA) and using an integrated digital TEVC amplifier controlled by HiClamp, an automated Voltage-Clamp Screening System (Multi Channel Systems MCS GmbH, Reutlingen, Germany). Whole-cell currents from oocytes were recorded 1–4 days after injection. The bath solution composition was ND96 (in mM): NaCl, 96; KCl, 2; CaCl2, 1.8; MgCl2, 2 and HEPES, 5 (pH 7.5). Voltage and current electrodes were filled with a 3 M solution of KCl in H2O. Resistances of both electrodes were kept between 0.5 and 1.5 MΩ. The elicited Kv1.x, Kv2.1, Kv4.2 and Kv10.1 currents were filtered at 0.5 kHz and sampled at 2 kHz using a four-pole low-pass Bessel filter. Leak subtraction was performed using a P/4 protocol.
(§3) For the electrophysiological analysis of the compounds, a number of protocols were applied from a holding potential of −90 mV. Currents for Kv1.x, Kv2.1, Kv4.2 and Kv10.1 were evoked by 1 s depolarizing pulses either to 0 mV or to a range of voltage steps between −80 mV and +40 mV. For the analysis of the data, only the inhibition at the 0 mV step was used. The concentration dependency of all compounds was assessed by measuring the current inhibition in the presence of increasing compound concentrations. […] From this stock solution, adequate dilutions with a maximum of 0.5% DMSO were made for testing.
(§4) All electrophysiological data (Figure S1) are presented as means ± S.E.M of n ≥ three independent experiments unless otherwise indicated. All data were analyzed using pClamp Clampfit 10.4 (Molecular Devices, Downingtown, PA, USA), OriginPro 9 (Originlab, Northampton, MA, USA), GraphPad Prism 8 software (GraphPad Software, Inc., San Diego, CA, USA) and DataMining (Multi Channel Systems MCS GmbH, Reutlingen, Germany). The Dunnett test and one-way ANOVA were performed to calculate the significance of the induced inhibition compared to the control.

Panc-1 cells = experiment: Cell proliferation (culture confluency, IncuCyte) in 2D culture, Panc-1; conditions: 100 µM, confluence by live cell imaging
Method: (§5) Cell lines Panc-1 (ACC 783) and Colo-357 (CVCL_0221) were obtained through the validated collection of the pHioniC consortium (MSC-ITN 813834). Both cell lines were grown in RPMI1640, supplemented with 1 mM sodium pyruvate and 1% Glutamax (all Gibco Thermo-Fisher, Waltham, MA USA) 10%FBS (BioChrom, Berlin, Germany), at 5% CO2 and 37 °C in a humidified atmosphere.
(§6) For cell proliferation assays, cells were seeded at a density of 10,000 cells/well in 96-well flat bottom culture plates (Corning, Kaiseslautern, Germany) and proliferation was measured through culture confluency using an IncuCyte device (Sartorius, Göttingen, Germany). Every hour, two phase contrast images per well were acquired, and a confluency mask was generated by training the analysis algorithm using representative images. Every image was then analyzed using the obtained parameters to determine culture confluency. Treatments were then added when cells reached a confluency of ~30% (Panc-1) or ~55% (Colo-357), and proliferation was determined for the following 60 h. Proliferation is reported as confluency increase with respect to the start of the treatment.

KV1.3 = KV1.3 (Homo sapiens, UniProt P22001); experiment: KV1.3 inhibition, manual whole-cell patch-clamp on Ltk^− cells; set-up: expressed in transfected cells; host or cells: Ltk- cells (mouse fibroblasts), transient transfection with lipofectamine 2000
Method: Ltk^− cells were cultured in Dulbecco’s Modified Eagle Medium (DMEM) supplemented with 10% horse serum and 1% penicillin/streptomycin (Invitrogen, Waltham, CA, USA). […] The coding sequence of hKv1.3 was cloned in a pEGFP plasmid without removing the stop codon (i.e., eGFP was not transcribed). Therefore, during transfection 0.5 µg of pEGFP plasmid (expressing eGFP) was added as transfection marker Cells were collected 24h post-transfection using a 0.05% trypsin-EDTA solution (Thermo Fisher Scientific, Waltham, MA, USA) and transferred to the recording chamber mounted on the stage of an inverted Nikon Eclipse TE2000 fluorescence microscope (Nikon, Minato, Japan). The compounds were dissolved in 100% DMSO and stock solutions were stored at -20°C. Before use, the stock concentrations were diluted with extracellular recording solution to appropriate concentrations, making sure that the final DMSO concentration never exceeded 0.1%. A 0.1% DMSO solution was prepared as a vehicle control.
All recordings were conducted at room temperature (20–23 °C) in the whole-cell configuration using an axopatch 200b amplifier (Molecular Devices, San Jose, CA, USA). Applied voltage pulse protocols and current recordings were controlled with pClamp 10 software and digitized using an axon digidata 1440 (Molecular Devices, San Jose, CA, USA). The cells in the recording chamber were continuously superfused with an extracellular solution (containing in mM): NaCl 145, KCl 4, MgCl2 1, CaCl2 1.8, HEPES 10, and glucose 10 (adjusted to pH 7.35 with NaOH). Patch pipettes were pulled from borosilicate glass (World Precision Instruments, Sarasota, FL, USA), using a P-2000 puller (Sutter Instruments, Novato, CA, USA), with resistances ranging from 1.5–2 MΩ. These pipettes were backfilled with an intracellular solution (containing in mM): KCl 110, K2ATP 5, MgCl2 2, HEPES 10, and K4BAPTA 5 (adjusted to pH 7.2 with KOH). Junction potentials were zeroed with the filled pipette in the extracellular solution of the recording chamber. A series resistance compensation of 80% was employed. Recordings were passed through a 5 kHz low-pass filter while being sampled at 10 kHz. A single step from holding potential (−80 mV) to +40 mV was utilized to monitor KV1.3 current inhibition. The pulse duration was 200 ms with an interpulse interval of 15 s. […]
The data was analyzed with pClamp 10 software (Molecular Devices, San Jose, CA, USA), and the dose-response curves shown were made using Sigmaplot 11.0 (Systat software, Palo Alto, CA USA). […] Results are expressed as mean ± SEM, with n being the number of cells analyzed. EC50 values were determined by fitting the Hill equation to the dose-response curve.

KV1.2 = KV1.2 (Homo sapiens, UniProt P16389); experiment: Selectivity, HiClamp Xenopus laevis heterologous expression system, KV1.2; conditions: for IC50: HiClamp, oocytes, NA = no significant inhibition, no IC50 determined; for Effect on KV1.2 channel: at a concentration of the compound's IC50 value for KV1.3
Method: as §1, §2, §3, §4

Colo-357 cells = experiment: Cell proliferation (culture confluency, IncuCyte) in 2D culture, Colo-357; conditions: 100 µM, confluence by live cell imaging
Method: as §5, §6

Panc-1 tumor spheroids = experiment: Apoptosis (caspase 3/7 activity) in Panc-1 tumor spheroids; conditions: with 8.9 µM cycloheximide
Method: as §5
Spheroids were cultured in round bottom ultra-low attachment 96-well plates (Corning). The optimal seeding densities were empirically determined (8000 cells/well for Colo-357 or 10,000 cells/well for Panc-1 spheroids. The cells were suspended in 2% Matrigel (Corning), centrifuged at 1000× g for 10 min and the spheroids were allowed to form in the incubator. Once the spheroids were formed, the treatments indicated together with 8.9 µM cycloheximide (as apoptosis sensitizer) were added and apoptosis was determined by live imaging in the Incucyte system in real time for approximately 60 h using Caspase-3/7 green reagent (Sartorius) as a reporter of apoptosis, which crosses the cell membrane and is cleaved by the activated Caspase-3/7, resulting in the fluorescent staining of nuclear DNA. Apoptosis on Panc-1 tumor spheroids is presented as integrated green fluorescence in the whole spheroid.

Chain of KV1.3 (P22001 whole entry): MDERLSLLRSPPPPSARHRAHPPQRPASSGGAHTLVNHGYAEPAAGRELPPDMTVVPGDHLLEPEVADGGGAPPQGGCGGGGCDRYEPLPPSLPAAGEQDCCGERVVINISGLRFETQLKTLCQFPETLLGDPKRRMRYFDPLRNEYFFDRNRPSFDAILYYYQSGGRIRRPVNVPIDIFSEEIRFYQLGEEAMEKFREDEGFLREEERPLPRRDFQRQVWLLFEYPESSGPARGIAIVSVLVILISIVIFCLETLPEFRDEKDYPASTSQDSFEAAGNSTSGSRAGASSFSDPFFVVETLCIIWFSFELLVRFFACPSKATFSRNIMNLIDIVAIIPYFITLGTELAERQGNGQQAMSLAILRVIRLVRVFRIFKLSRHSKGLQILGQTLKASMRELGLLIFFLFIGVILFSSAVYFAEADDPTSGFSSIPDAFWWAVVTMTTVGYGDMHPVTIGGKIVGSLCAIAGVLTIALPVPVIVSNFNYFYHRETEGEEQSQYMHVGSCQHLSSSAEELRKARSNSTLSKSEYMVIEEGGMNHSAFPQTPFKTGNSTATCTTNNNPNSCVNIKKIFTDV
Chain of KV1.5 (P22460 whole entry): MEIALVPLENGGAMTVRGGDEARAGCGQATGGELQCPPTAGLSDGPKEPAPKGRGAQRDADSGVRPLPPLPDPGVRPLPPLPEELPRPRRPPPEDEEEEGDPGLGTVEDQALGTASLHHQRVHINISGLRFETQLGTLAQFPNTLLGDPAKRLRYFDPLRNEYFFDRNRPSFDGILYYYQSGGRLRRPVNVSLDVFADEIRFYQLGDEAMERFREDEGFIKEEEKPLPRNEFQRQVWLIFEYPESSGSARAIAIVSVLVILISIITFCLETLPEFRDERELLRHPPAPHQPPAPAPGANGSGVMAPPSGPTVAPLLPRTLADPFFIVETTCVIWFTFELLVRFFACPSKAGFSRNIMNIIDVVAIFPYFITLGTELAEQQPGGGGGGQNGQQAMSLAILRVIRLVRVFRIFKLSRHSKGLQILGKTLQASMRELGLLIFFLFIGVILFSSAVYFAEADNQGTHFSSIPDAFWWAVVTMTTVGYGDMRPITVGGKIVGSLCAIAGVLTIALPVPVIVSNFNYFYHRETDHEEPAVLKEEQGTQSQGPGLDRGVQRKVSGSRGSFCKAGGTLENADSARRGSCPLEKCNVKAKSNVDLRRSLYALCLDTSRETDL
Chain of KV1.2 (P16389 whole entry): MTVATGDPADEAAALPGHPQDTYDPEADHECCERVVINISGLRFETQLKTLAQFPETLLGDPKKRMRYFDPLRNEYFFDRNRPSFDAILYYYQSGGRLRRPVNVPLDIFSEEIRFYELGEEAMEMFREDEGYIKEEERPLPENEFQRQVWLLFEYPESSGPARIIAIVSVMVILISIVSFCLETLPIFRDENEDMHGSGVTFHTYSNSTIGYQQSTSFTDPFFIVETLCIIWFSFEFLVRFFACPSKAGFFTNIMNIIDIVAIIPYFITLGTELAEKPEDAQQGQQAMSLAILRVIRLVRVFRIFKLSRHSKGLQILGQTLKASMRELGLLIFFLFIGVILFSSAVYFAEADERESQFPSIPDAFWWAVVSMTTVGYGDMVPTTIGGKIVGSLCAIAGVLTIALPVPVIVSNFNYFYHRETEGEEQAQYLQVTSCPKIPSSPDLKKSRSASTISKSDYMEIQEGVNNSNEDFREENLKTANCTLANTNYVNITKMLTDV

Question: With `COc1ccc(F)cc1C(=O)NCC1(c2ccccc2)CCOCC1` [Compound 37] as the molecule, how does the IC50 (KV1.5) read?
Answer: Its IC50 is 8640 ± 30 nM.

Question: And the “Effect on KV1.5 channel” value (KV1.5)?
Answer: The value was “significantly inhibited”.

Question: And the “Growth (proliferation) inhibition of Panc-1 cells” value (“Growth (proliferation) inhibition” below) (Panc-1 cells)?
Answer: The value was “significantly inhibited; also recorded: strong inhibition”.

Question: And the IC50 (KV1.3)?
Answer: The IC50 was 1350 ± 40 nM.

Question: And the IC50 (KV1.2)?
Answer: Its IC50 is 2340 ± 260 nM.

Question: What about the “Effect on KV1.2 channel” value (KV1.2) of the same molecule?
Answer: Its value is “significantly inhibited”.

Question: What about the “Growth of Colo-357 cells” value (Colo-357 cells) of the same molecule?
Answer: The value was “not significantly affected; also recorded: unaffected”.

Question: And the “Induction of apoptosis in Panc-1 spheroids” value (“Induction of apoptosis” below) (Panc-1 tumor spheroids)?
Answer: The value was “did not induce detectable levels of apoptosis”.

Question: `COc1ccccc1C(=O)NCC1(c2cccs2)CCOC1` (stereo not drawn) [Compound 14] was tested. Which IC50 (KV1.5) did it give?
Answer: The IC50 was 2070 ± 130 nM.

Question: What about the “Effect on KV1.5 channel” value (KV1.5) of the same molecule?
Answer: Its value is “significant effects”.

Question: And the “Growth (proliferation) inhibition” value (Panc-1 cells)?
Answer: The value was “significantly inhibited; also recorded: strong inhibition”.

Question: What about the IC50 (KV1.3) of the same molecule?
Answer: The IC50 was 1330 ± 200 nM.

Question: And the IC50 (KV1.2)?
Answer: Its IC50 is 4000 ± 200 nM.

Question: And the “Effect on KV1.2 channel” value (KV1.2)?
Answer: The value was “significant effects”.

Question: What about the “Growth of Colo-357 cells” value (Colo-357 cells) of the same molecule?
Answer: The value was “not significantly affected; also recorded: unaffected”.

Question: And the “Induction of apoptosis” value (Panc-1 tumor spheroids)?
Answer: The value was “did not induce detectable levels of apoptosis”.

Question: How did the IC50 (KV1.5) turn out when `COc1ccccc1C(=O)NCC1(c2cccs2)CCOCC1` [Compound 43] was run?
Answer: Its IC50 is 4330 ± 10 nM.

Question: And the “Effect on KV1.5 channel” value (KV1.5)?
Answer: The value was “significant effects”.

Question: What about the “Growth (proliferation) inhibition” value (Panc-1 cells) of the same molecule?
Answer: Its value is “significantly inhibited; also recorded: strong inhibition”.

Question: What about the IC50 (KV1.3) of the same molecule?
Answer: Its IC50 is 1020 ± 70 nM.

Question: And the IC50 (KV1.2)?
Answer: Its IC50 is 2760 ± 560 nM.

Question: What about the “Effect on KV1.2 channel” value (KV1.2) of the same molecule?
Answer: The value was “significant effects”.

Question: What about the “Growth of Colo-357 cells” value (Colo-357 cells) of the same molecule?
Answer: Its value is “not significantly affected; also recorded: unaffected”.

Question: And the “Induction of apoptosis” value (Panc-1 tumor spheroids)?
Answer: The value was “did not induce detectable levels of apoptosis”.

Question: `COc1ccccc1C(=O)NCC1(c2ccsc2)CCOCC1` [Compound 44] was tested. Which “Effect on KV1.5 channel” value (KV1.5) did it give?
Answer: The value was “no significant effects”.

Question: And the “Growth (proliferation) inhibition” value (Panc-1 cells)?
Answer: The value was “significantly inhibited; also recorded: moderate growth inhibition”.

Question: And the IC50 (KV1.3)?
Answer: Its IC50 is 950 ± 240 nM.

Question: What about the “Effect on KV1.2 channel” value (KV1.2) of the same molecule?
Answer: The value was “no significant effects”.

Question: And the “Growth of Colo-357 cells” value (Colo-357 cells)?
Answer: The value was “not significantly affected; also recorded: unaffected”.

Question: And the “Induction of apoptosis” value (Panc-1 tumor spheroids)?
Answer: Its value is “did not induce detectable levels of apoptosis”.
